Laboratory results: patent publication US10183944B2 (Asana Biosciences, LLC, priority 2011, dated 2019)
pIC50: −log10 of the molar value. Where a name gives a salt, the structure may show the parent alone. Values belong to the compound of their own block, whether it stands above or below them.

Legend:
[1] = molecular target: Syk (356-635 amino acids) catalytic domain (Homo sapiens (Human), UniProt P43405); assay: Inhibition of enzymatic Syk kinase activity (radiometric); assay type: biochemical; conditions: read-out: IC50 Syk
Outline: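 Radiometric filter-binding format: 32P transfer from γ-32P-ATP onto pG4T, scintillation-counted after acid washes of P81 paper. Syk kinase domain (356-635), 0.035–7.5 ng per reaction, was exposed to compound for 30 minutes at room temperature before a 10-minute, 30° C. reaction with ATP (100 μM stock). Inhibition derived from counts with versus without compound.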

JAK2 = JAK2 (Homo sapiens (Human), UniProt O60674); assay: Inhibition of enzymatic JAK2 kinase activity (TR-FRET); assay type: biochemical; conditions: read-out: IC50 JAK
Sequence of JAK2 (O60674 808-1132): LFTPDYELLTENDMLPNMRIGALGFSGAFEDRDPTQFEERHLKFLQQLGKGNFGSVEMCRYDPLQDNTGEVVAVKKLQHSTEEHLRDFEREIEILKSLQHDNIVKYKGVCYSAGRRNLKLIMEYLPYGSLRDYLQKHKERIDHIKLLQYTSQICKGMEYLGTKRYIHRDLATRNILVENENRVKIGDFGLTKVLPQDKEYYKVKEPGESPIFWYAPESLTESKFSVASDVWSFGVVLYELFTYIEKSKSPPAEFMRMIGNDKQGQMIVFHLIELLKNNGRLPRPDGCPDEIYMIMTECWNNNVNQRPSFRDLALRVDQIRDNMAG
Outline: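 TR-FRET read-out (Eu antibody donor, Ulight poly Glu-Tyr acceptor, 665/615 nm ratio) after a 60 min RT kinase reaction with ATP, begun following 30 min compound–enzyme preincubation. Stopped by EDTA; inhibition expressed as 100 minus % activity of positive control.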

Structure (SMILES): CCN1CCN(c2ccc(Nc3nc(-c4ccc(OC(F)(F)F)cc4)nc4cn[nH]c(=O)c34)cc2)CC1 [Example 28, 4-(4-(4-ethylpiperazin-1-yl)phenylamino)-2-(4-(trifluoromethoxy)phenyl) pyrimido[4,5-d]pyridazin-5(6H)-one]
- pIC50 [1]: < 7.00
- pIC50 (JAK2): < 7.00

Structure (SMILES): O=c1[nH]ncc2nc(-c3ccc(CN4CCOCC4)cc3)nc(Nc3ccc(CN4CCNCC4)cc3)c12 [Example 55, 2-(4-(morpholinomethyl)phenyl)-4-((4-(piperazin-1-ylmethyl)phenyl)amino) pyrimido[4,5-d]pyridazin-5(6H)-one hydrochloride]
- pIC50 [1]: < 7.00
- pIC50 (JAK2): < 7.00

Structure (SMILES): CS(=O)(=O)c1ccc(Nc2nc(N3CCCCCC3)nc3cn[nH]c(=O)c23)cc1 [Example 334, 2-(azepan-1-yl)-4-((4-(methylsulfonyl)phenyl)amino)pyrimido[4,5-d]pyridazin-5(6H)-one]
- pIC50 [1]: > 7.30
- pIC50 (JAK2): > 8.00

Structure (SMILES): O=c1[nH]ncc2nc(N3CCOCC3)nc(Nc3ccc(CN4CCNCC4)cc3)c12 [Example 3, 2-morpholino-4-(4-(piperazin-1-ylmethyl)phenylamino)pyrimido[4,5-d]pyridazin-5(6H)-one hydrochloride]
- pIC50 [1]: < 7.00
- pIC50 (JAK2): > 7.00

Structure (SMILES): CC(C)(O)C(=O)N1CCN(c2ccc(Nc3nc(N4CCC(CC#N)CC4)nc4cn[nH]c(=O)c34)cc2)CC1 [Example 223, 2-(1-(4-((4-(4-(2-hydroxy-2-methylpropanoyl)piperazin-1-yl)phenyl)amino)-5-oxo-5,6-dihydropyrimido[4,5-d]pyridazin-2-yl)piperidin-4-yl) acetonitrile]
- pIC50 [1]: > 8.00
- pIC50 (JAK2): > 8.00

Structure (SMILES): O=c1[nH]ncc2nc(N3CCCCCC3)nc(Nc3ccc(-c4nn[nH]n4)cc3)c12 [Example 227, 4-((4-(2H-tetrazol-5-yl)phenyl)amino)-2-(azepan-1-yl)pyrimido[4,5-d]pyridazin-5(6H)-one]
- pIC50 [1]: > 7.30
- pIC50 (JAK2): > 8.00

Structure (SMILES): COC1CCN(c2ccc(Nc3nc(N4CCCCCC4)nc4cn[nH]c(=O)c34)cc2)CC1 [Example 288, 2-(azepan-1-yl)-4-((4-(4-methoxypiperidin-1-yl)phenyl)amino) pyrimido[4,5-d]pyridazin-5(6H)-one]
- pIC50 [1]: > 7.30
- pIC50 (JAK2): > 7.30

Structure (SMILES): N#CCC1CCN(c2nc(Nc3ccc(CCCF)cc3)c3c(=O)[nH]ncc3n2)CC1 [Example 337, 2-(1-(4-((4-(3-fluoropropyl)phenyl)amino)-5-oxo-5,6-dihydropyrimido[4,5-d]pyridazin-2-yl)piperidin-4-yl) acetonitrile]
- pIC50 [1]: > 7.30
- pIC50 (JAK2): > 7.30

Structure (SMILES): CC1CCN(c2nc(Nc3ccc(OCCN4CCNCC4)cc3)c3c(=O)[nH]ncc3n2)CC1 [Example 156, 2-(4-methylpiperidin-1-yl)-4-((4-(2-(piperazin-1-yl)ethoxy)phenyl)amino) pyrimido[4,5-d]pyridazin-5(6H)-one hydrochloride]
- pIC50 [1]: > 7.30
- pIC50 (JAK2): > 7.00

Structure (SMILES): O=c1[nH]ncc2nc(-c3ccccc3)nc(Nc3ccc(CN4CCOCC4)cc3)c12 [Example 4, 4-(4-(morpholinomethyl)phenylamino)-2-phenylpyrimido[4,5-d]pyridazin-5(6H)-one]
- pIC50 [1]: > 7.00
- pIC50 (JAK2): > 7.30

Structure (SMILES): O=c1[nH]ncc2nc(N3CCCCCC3)nc(Nc3ccc(-c4nnn(CCO)n4)cc3)c12 [Example 222, 2-(azepan-1-yl)-4-((4-(2-(2-hydroxyethyl)-2H-tetrazol-5-yl)phenyl)amino) pyrimido[4,5-d]pyridazin-5(6H)-one]
- pIC50 [1]: > 7.00
- pIC50 (JAK2): > 7.30

Structure (SMILES): O=C(O)C1CC12CCN(c1ccc(Nc3nc(C4CCCCCC4)nc4cn[nH]c(=O)c34)cc1)CC2 (stereo not shown) [Example 81, 6-(4-((2-cycloheptyl-5-oxo-5,6-dihydropyrimido[4,5-d]pyridazin-4-yl)amino)phenyl)-6-azaspiro[2.5]octane-1-carboxylic acid]
- pIC50 [1]: > 7.30
- pIC50 (JAK2): > 8.00

Structure (SMILES): N#CCC1CCN(c2nc(Nc3ccc(N4CCCC(O)C4)cc3)c3c(=O)[nH]ncc3n2)CC1 (stereo not shown) [Example 282, 2-(1-(4-((4-(3-hydroxypiperidin-1-yl)phenyl)amino)-5-oxo-5,6-dihydropyrimido[4,5-d]pyridazin-2-yl)piperidin-4-yl)acetonitrile]
- pIC50 [1]: > 7.30
- pIC50 (JAK2): > 8.00

Structure (SMILES): O=C1CN(c2ccc(Nc3nc(N4CCCCCC4)nc4cn[nH]c(=O)c34)cc2)CCN1 [Example 165, 2-(azepan-1-yl)-4-((4-(3-oxopiperazin-1-yl)phenyl)amino)pyrimido[4,5-d]pyridazin-5(6H)-one]
- pIC50 [1]: > 7.00
- pIC50 (JAK2): > 8.00

Structure (SMILES): CC(C)(C(=O)O)C1CCN(c2ccc(Nc3nc(-c4ccccc4)nc4cn[nH]c(=O)c34)cc2)CC1 [Example 143, 2-methyl-2-(1-(4-((5-oxo-2-phenyl-5,6-dihydropyrimido[4,5-d]pyridazin-4-yl)amino)phenyl)piperidin-4-yl)propanoic acid]
- pIC50 [1]: > 7.30
- pIC50 (JAK2): < 7.00

Structure (SMILES): O=c1[nH]ncc2nc(N3CCCCCC3)nc(Nc3ccc(OCCCN4CCNCC4)cc3)c12 [Example 136, 2-(azepan-1-yl)-4-((4-(3-(piperazin-1-yl)propoxy)phenyl)amino)pyrimido[4,5-d]pyridazin-5(6H)-one]
- pIC50 [1]: > 7.30
- pIC50 (JAK2): > 7.30

Structure (SMILES): N#CCC1CCN(c2nc(Nc3ccc4[nH]c(=O)[nH]c4c3)c3c(=O)[nH]ncc3n2)CC1 [Example 336, 2-(1-(5-oxo-4-((2-oxo-2,3-dihydro-1H-benzo[d]imidazol-5-yl)amino)-5,6-dihydropyrimido[4,5-d]pyridazin-2-yl)piperidin-4-yl)acetonitrile]
- pIC50 [1]: > 7.30
- pIC50 (JAK2): > 7.30

Further lines, results first:

- pIC50 [1]: > 7.30
- pIC50 (JAK2): > 7.30
Structure (SMILES): CC(C)(O)C(=O)N1CCN(CCOc2ccc(Nc3nc(N4CCCCCC4)nc4cn[nH]c(=O)c34)cc2)CC1 [Example 115, 2-(azepan-1-yl)-4-((4-(2-(4-(2-hydroxy-2-methylpropanoyl)piperazin-1-yl)ethoxy)phenyl)amino)pyrimido[4,5-d]pyridazin-5(6H)-one]

- pIC50 [1]: > 7.30
- pIC50 (JAK2): > 7.30
Structure (SMILES): O=C(O)CN1CCN(CCOc2ccc(Nc3nc(N4CCCCCC4)nc4cn[nH]c(=O)c34)cc2)CC1 [Example 106, 2-(4-(2-(4-((2-(azepan-1-yl)-5-oxo-5,6-dihydropyrimido[4,5-d]pyridazin-4-yl)amino)phenoxy)ethyl)piperazin-1-yl) acetic acid]

- pIC50 [1]: > 8.00
- pIC50 (JAK2): > 8.00
Structure (SMILES): CC(C)(C(=O)O)N1CCN(c2ccc(Nc3nc(N4CCCCCC4)nc4cn[nH]c(=O)c34)cc2)CC1 [Example 140, 2-(4-(4-((2-(azepan-1-yl)-5-oxo-5,6-dihydropyrimido[4,5-d]pyridazin-4-yl)amino)phenyl)piperazin-1-yl)-2-methylpropanoic acid]

- pIC50 [1]: > 7.30
- pIC50 (JAK2): > 8.00
Structure (SMILES): N#CCC1CCN(c2nc(Nc3ccc(N4CCCC(CC(=O)O)C4)cc3)c3c(=O)[nH]ncc3n2)CC1 (stereo not shown) [Example 250, 2-(1-(4-((2-(4-(cyanomethyl)piperidin-1-yl)-5-oxo-5,6-dihydropyrimido[4,5-d]pyridazin-4-yl)amino)phenyl)piperidin-3-yl)acetic acid]

- pIC50 [1]: > 7.30
- pIC50 (JAK2): > 8.00
Structure (SMILES): CC(C)(O)C(=O)N1CCN(Cc2ccc(Nc3nc(N4CCCCCC4)nc4cn[nH]c(=O)c34)cc2)CC1 [Example 84, 2-(azepan-1-yl)-4-((4-((4-(2-hydroxy-2-methylpropanoyl)piperazin-1-yl)methyl)phenyl)amino)pyrimido[4,5-d]pyridazin-5(6H)-one]

- pIC50 [1]: > 8.00
- pIC50 (JAK2): > 7.30
Structure (SMILES): O=c1[nH]ncc2nc(N3CCCCCC3)nc(Nc3ccc(OC[C@@H]4CO[C@@H](CO)CO4)cc3)c12 [Example 110, 2-(azepan-1-yl)-4-((4-(((2S,5S)-5-(hydroxymethyl)-1,4-dioxan-2-yl)methoxy)phenyl)amino)pyrimido[4,5-d]pyridazin-5(6H)-one]

- pIC50 [1]: > 8.00
- pIC50 (JAK2): > 8.00
Structure (SMILES): O=C(O)C1CC12CCN(c1ccc(Nc3nc(N4CCCCCC4)nc4cn[nH]c(=O)c34)cc1F)CC2 (stereo not shown) [Example 135, 6-(4-((2-(azepan-1-yl)-5-oxo-5,6-dihydropyrimido[4,5-d]pyridazin-4-yl)amino)-2-fluorophenyl)-6-azaspiro[2.5]octane-1-carboxylic acid]

- pIC50 [1]: > 8.00
- pIC50 (JAK2): > 8.00
Structure (SMILES): NCCOc1ccc(Nc2nc(N3CCCCCC3)nc3cn[nH]c(=O)c23)cc1 [Example 199, 4-((4-(2-aminoethoxy)phenyl)amino)-2-(azepan-1-yl)pyrimido[4,5-d]pyridazin-5(6H)-one]

- pIC50 [1]: > 8.00
- pIC50 (JAK2): > 8.00
Structure (SMILES): O=c1[nH]ncc2nc(N3CCCCCC3)nc(Nc3ccc(N4CCCN(CCO)CC4)cc3)c12 [Example 263, 2-(azepan-1-yl)-4-((4-(4-(2-hydroxyethyl)-1,4-diazepan-1-yl)phenyl)amino) pyrimido[4,5-d]pyridazin-5(6H)-one]

- pIC50 [1]: > 8.00
- pIC50 (JAK2): > 8.00
Structure (SMILES): O=C(CC1CCN(c2ccc(Nc3nc(N4CCCCCC4)nc4cn[nH]c(=O)c34)cc2)CC1)NCCO [Example 109, 2-(1-(4-((2-(azepan-1-yl)-5-oxo-5,6-dihydropyrimido[4,5-d]pyridazin-4-yl)amino)phenyl)piperidin-4-yl)-N-(2-hydroxyethyl)acetamide]

- pIC50 [1]: > 7.30
- pIC50 (JAK2): > 7.30
Structure (SMILES): N#CCC1CCN(c2nc(Nc3ccc(N4CCC(CCCO)CC4)cc3)c3c(=O)[nH]ncc3n2)CC1 [Example 205, 2-(1-(4-((4-(4-(3-hydroxypropyl)piperidin-1-yl)phenyl)amino)-5-oxo-5,6-dihydropyrimido[4,5-d]pyridazin-2-yl)piperidin-4-yl)acetonitrile]

- pIC50 [1]: > 8.00
- pIC50 (JAK2): > 8.00
Structure (SMILES): CN1CCN(c2ccc(Nc3nc(N4CCCCCC4)nc4cn[nH]c(=O)c34)cc2)CC1 [Example 247, 2-(azepan-1-yl)-4-((4-(4-methylpiperazin-1-yl)phenyl)amino)pyrimido[4,5-d]pyridazin-5(6H)-one]
